Reference: patent US20250144067A1, “PERSONALIZED STARVATION THERAPY FOR CANCER” (Faeth Therapeutics, Inc., priority 2021, published 2025)
Structures can show the parent of a compound that is named as a salt. Where two headings read alike, the source gives them in different places.

Tests used:
[1] = system: NCI-H292 lung cancer cells; test: FDA drug screening, complete media vs cholesterol-free media without statin (TABLE 1); format: cell-based, human
[2] = system: NCI-H292 lung cancer cells; test: FDA drug screening, complete media vs cholesterol-free media with simvastatin (TABLE 2); format: cell-based, human
[3] = NCI-H292 cells, cholesterol-free media without statin
[4] = complete vs cholesterol-free media, greater than 0 enhanced anti-cancer activity, about 0 neutral, below 0 antagonists
[5] = NCI-H292 cells, FDA library drug in cholesterol-free media with simvastatin 0.04 μM
[6] = NCI-H292 cells, FDA library drug in complete media
[7] = complete media vs cholesterol-free media + simvastatin (0.04 μM), >0 enhanced anti-cancer activity, about 0 neutral, <0 antagonist
[8] = Complete minus Cholesterol-free, >0 enhanced anti-cancer activity, about 0 neutral, <0 antagonist
[9] = NCI-H292 cells, cholesterol-free media without statin, FDA drug library screen
[10] = NCI-H292 cells, complete media, FDA drug library screen
[11] = NCI-H292 cells, cholesterol-free media with simvastatin 0.04 μM, FDA drug library screen (TABLE 2)
[12] = NCI-H292 cells, complete media, FDA drug library screen (TABLE 2)
[13] = complete media minus cholesterol-free media + simvastatin (0.04 μM), >0 enhanced anti-cancer activity, about 0 neutral, <0 antagonist
[14] = complete vs cholesterol-free media, […]
[15] = NCI-H292 cells, FDA drug library screen, cholesterol-free media with simvastatin 0.04 μM
[16] = NCI-H292 cells, FDA drug library screen, complete media
[17] = complete media minus cholesterol-free media + simvastatin, […]
[18] = complete vs cholesterol-free media, >0 enhanced anti-cancer activity, about 0 neutral, <0 antagonist
[19] = NCI-H292 cells, drug in cholesterol-free media with simvastatin 0.04 μM
[20] = NCI-H292 cells, drug in complete media
[21] = Complete minus Cholesterol-free, greater than 0 enhanced anti-cancer activity, about 0 neutral, below 0 antagonists
[22] = NCI-H292 cells in cholesterol-free media without statin
[23] = NCI-H292 cells in complete media
[24] = NCI-H292 cells, cholesterol-free media with simvastatin 0.04 μM, cell growth value in FDA drug screen
[25] = NCI-H292 cells, complete media, cell growth value in FDA drug screen
[26] = complete media minus cholesterol-free media + simvastatin, >0 enhanced anti-cancer activity, about 0 neutral, <0 antagonist
[27] = Complete minus Cholesterol-free, greater than 0 enhanced anti-cancer activity, about 0 neutral, below 0 antagonist
[28] = NCI-H292 cells, FDA drug library screen, cholesterol-free media without statin
[29] = complete media vs cholesterol-free media + simvastatin (0.04 μM), […]

## CC1=C(C(=O)O)N2C(=O)[C@@H](NC(=O)[C@H](N)c3ccccc3)[C@H]2SC1 [Cephalexin (monohydrate)]
[1]; [3]
  Cholesterol-free: 1.506
[1]; NCI-H292 cells, complete media
  Complete: 1.062
[1]; [4]
  Difference: −0.44
[2]; [5]
  Cholesterol-free media + simvastatin (0.04 μM): 1.59
[2]; [6]
  Complete Media: 0.9161
[2]; [7]
  Difference: −0.67

## COc1ccc(C[C@H](N)C(=O)N[C@H]2[C@@H](O)[C@H](n3cnc4c(N(C)C)ncnc43)O[C@@H]2CO)cc1 [Puromycin (dihydrochloride)]
[1]; [8]
  Difference: −0.02
[1]; [9]
  Cholesterol-free: 0.005958
[1]; [10]
  Complete: −0.01645
[2]; [11]
  Cholesterol-free media + simvastatin (0.04 μM): −0.002227
[2]; [12]
  Complete Media: −0.05066
[2]; [13]
  Difference: −0.05

## COc1cc2c3cc1Oc1c(OC)c(OC)cc4c1[C@@H](Cc1ccc(O)c(c1)Oc1ccc(cc1)C[C@@H]3N(C)CC2)N(C)CC4 [Berbamine (dihydrochloride)]
[1]; [3]
  Cholesterol-free: 1.782
[1]; NCI-H292 cells, complete media
  Complete: 1.401
[1]; [14]
  Difference: −0.38
[2]; [15]
  Cholesterol-free media + simvastatin (0.04 μM): 0.2857
[2]; [16]
  Complete Media: 1.04
[2]; [17]
  Difference: 0.75

## Cc1ncc(COP(=O)(O)O)c(C=O)c1O [Pyridoxal phosphate]
[1]; [9]
  Cholesterol-free: 1.045
[1]; [10]
  Complete: 1.512
[1]; [18]
  Difference: 0.47
[2]; [19]
  Cholesterol-free media + simvastatin (0.04 μM): 1.11
[2]; [20]
  Complete Media: 0.9056
[2]; [7]
  Difference: −0.20

## CNCC[C@@H](Oc1ccccc1C)c1ccccc1 [Atomoxetine (hydrochloride)]
[1]; [21]
  Difference: −0.68
[1]; [22]
  Cholesterol-free: 1.663
[1]; [23]
  Complete: 0.988
[2]; [24]
  Cholesterol-free media + simvastatin (0.04 μM): 1.776
[2]; [25]
  Complete Media: 1.803
[2]; [26]
  Difference: 0.03

## N=C(N)NCCC[C@H](N)C(=O)O [L-Arginine]
[1]
  Cholesterol-free: 0.984
  Complete: 1.115
  Difference: 0.13
[2]
  Cholesterol-free media + simvastatin (0.04 μM): 1.189
  Complete Media: 1.484
  Difference: 0.29

## CN1CCc2nc(C(=O)N[C@@H]3C[C@@H](C(=O)N(C)C)CC[C@@H]3NC(=O)C(=O)Nc3ccc(Cl)cn3)sc2C1 [Edoxaban]
[1]; [9]
  Cholesterol-free: 1.603
[1]; [10]
  Complete: 1.759
[1]; [18]
  Difference: 0.16
[2]; [19]
  Cholesterol-free media + simvastatin (0.04 μM): 1.032
[2]; [20]
  Complete Media: 0.8097
[2]; [7]
  Difference: −0.22

## CN(C)CCN(Cc1ccccc1)c1ccccn1 [Tripelennamine (hydrochloride)]
[1]; [27]
  Difference: −0.13
[1]; [28]
  Cholesterol-free: 1.185
[1]; [16]
  Complete: 1.051
[2]; [5]
  Cholesterol-free media + simvastatin (0.04 μM): 1.12
[2]; [6]
  Complete Media: 0.8343
[2]; [7]
  Difference: −0.29

## Econazole (nitrate)
[1]; [27]
  Difference: −0.13
[1]; [28]
  Cholesterol-free: 0.9667
[1]; [16]
  Complete: 0.8375
[2]; [15]
  Cholesterol-free media + simvastatin (0.04 μM): 0.1971
[2]; [26]
  Difference: 0.88

## Ibutilide (fumarate)
[1]; [21]
  Difference: −1.13
[1]; [22]
  Cholesterol-free: 1.969
[1]; [23]
  Complete: 0.8391
[2]; [11]
  Cholesterol-free media + simvastatin (0.04 μM): 1.045
[2]; [13]
  Difference: −0.02

## Lapatinib (ditosylate)
[1]; [27]
  Difference: −0.15
[1]; [28]
  Cholesterol-free: 0.4354
[1]; [16]
  Complete: 0.2847
[2]; [11]
  Cholesterol-free media + simvastatin (0.04 μM): 0.4889
[2]; [12]
  Complete Media: 0.4758
[2]; [13]
  Difference: −0.01

## O=C1O[C@H](CO)[C@@H](O)[C@H](O)[C@H]1O [D-(+)-Glucono-1,5-lactone]
[1]; [3]
  Cholesterol-free: 1.227
[1]; NCI-H292 cells, complete media
  Complete: 0.906
[1]; [4]
  Difference: −0.32
[2]; [15]
  Cholesterol-free media + simvastatin (0.04 μM): 1.196
[2]; [16]
  Complete Media: 1.644
[2]; [26]
  Difference: 0.45

## Spiramycin
[1]; [21]
  Difference: −1.20
[1]; [22]
  Cholesterol-free: 2.038
[1]; [23]
  Complete: 0.8421
[2]; [19]
  Cholesterol-free media + simvastatin (0.04 μM): 1.277
[2]; [7]
  Difference: −0.16

## CCCN1CC(NS(=O)(=O)N(CC)CC)CC2Cc3c(O)cccc3CC21 (stereo not drawn) [Quinagolide (hydrochloride)]
[1]; [27]
  Difference: −0.15
[1]; [28]
  Cholesterol-free: 1.129
[1]; [16]
  Complete: 0.9753
[2]; [24]
  Cholesterol-free media + simvastatin (0.04 μM): 0.9283
[2]; [25]
  Complete Media: 1.019
[2]; [26]
  Difference: 0.09

## CN(C)CCC=C1c2ccccc2COc2ccccc21 [Doxepin (Hydrochloride)]
[1]; [27]
  Difference: −0.11
[1]; [28]
  Cholesterol-free: 1.23
[1]; [16]
  Complete: 1.122
[2]; [15]
  Cholesterol-free media + simvastatin (0.04 μM): 0.8618
[2]; [16]
  Complete Media: 1.158
[2]; [26]
  Difference: 0.30

## Nc1c(Br)cc(Br)cc1CN[C@H]1CC[C@H](O)CC1 [Ambroxol (hydrochloride)]
[1]; [3]
  Cholesterol-free: 1.285
[1]; NCI-H292 cells, complete media
  Complete: 0.8347
[1]; [4]
  Difference: −0.45
[2]; [11]
  Cholesterol-free media + simvastatin (0.04 μM): 1.005
[2]; [12]
  Complete Media: 0.9822
[2]; [13]
  Difference: −0.02

## CCN[C@H]1CN(CCCOC)S(=O)(=O)c2sc(S(N)(=O)=O)cc21 [Brinzolamide]
[1]; [8]
  Difference: 0.00
[1]; [9]
  Cholesterol-free: 0.8738
[1]; [10]
  Complete: 0.876
[2]; [24]
  Cholesterol-free media + simvastatin (0.04 μM): 1.105
[2]; [25]
  Complete Media: 1.197
[2]; [26]
  Difference: 0.09

## Cc1ncc([N+](=O)[O-])n1C [Dimetridazole]
[1]; [3]
  Cholesterol-free: 1.219
[1]; NCI-H292 cells, complete media
  Complete: 0.8738
[1]; [4]
  Difference: −0.35
[2]; [5]
  Cholesterol-free media + simvastatin (0.04 μM): 1.602
[2]; [6]
  Complete Media: 0.8915
[2]; [7]
  Difference: −0.71

## CC1CC(OC(=O)c2ccccc2O)CC(C)(C)C1 (stereo not drawn) [Homosalate]
[1]; [3]
  Cholesterol-free: 0.9096
[1]; NCI-H292 cells, complete media
  Complete: 0.5831
[1]; [4]
  Difference: −0.33
[2]; [24]
  Cholesterol-free media + simvastatin (0.04 μM): 1.411
[2]; [25]
  Complete Media: 1.442
[2]; [26]
  Difference: 0.03

## CN(C)c1cc(NC(=O)CNC(C)(C)C)c(O)c2c1C[C@H]1C[C@H]3[C@H](N(C)C)C(O)=C(C(N)=O)C(=O)[C@@]3(O)C(O)=C1C2=O [Tigecycline]
[1]; Complete minus Cholesterol-free, […]
  Difference: −0.13
[1]; [28]
  Cholesterol-free: 1.231
[1]; [16]
  Complete: 1.106
[2]; [5]
  Cholesterol-free media + simvastatin (0.04 μM): 1.179
[2]; [6]
  Complete Media: 0.8929
[2]; [29]
  Difference: −0.29

## Mosapride (citrate)
[1]; [9]
  Cholesterol-free: 0.9953
[1]; [10]
  Complete: 1.241
[1]; [18]
  Difference: 0.25
[2]; [15]
  Cholesterol-free media + simvastatin (0.04 μM): 0.963
[2]; [16]
  Complete Media: 0.8629
[2]; [7]
  Difference: −0.10

## CNCC(=O)N[C@@H](CCCN=C(N)N)C(=O)N[C@H](C(=O)N[C@@H](Cc1ccc(O)cc1)C(=O)N[C@H](C(=O)N[C@@H](Cc1cnc[nH]1)C(=O)N1CCC[C@H]1C(=O)N[C@@H](C)C(=O)O)C(C)C)C(C)C [Saralasin (TFA)]
[1]; [9]
  Cholesterol-free: 1.11
[1]; [10]
  Complete: 1.396
[1]; [14]
  Difference: 0.29
[2]; NCI-H292 cells, cholesterol-free media with simvastatin 0.04 μM, […]
  Cholesterol-free media + simvastatin (0.04 μM): 0.7862
[2]; NCI-H292 cells, complete media, […]
  Complete Media: 0.8195
[2]; [17]
  Difference: 0.03

## CC[C@H](C)C(=O)N1CCC(NC(=O)Nc2ccc(OC(F)(F)F)c(F)c2)CC1 [EC5026]
[1]; [3]
  Cholesterol-free: 1.148
[1]; NCI-H292 cells, complete media
  Complete: 0.7425
[1]; [14]
  Difference: −0.41
[2]; [15]
  Cholesterol-free media + simvastatin (0.04 μM): 1.241
[2]; [16]
  Complete Media: 1.143
[2]; [29]
  Difference: −0.10
